{"source": "patent US4092420A", "about": "“Novel soft N-chloroamino alcohol derivatives exhibiting antibacterial activity” (INTERx Research Corporation, priority 1977, dated 1978)", "key": {"P. aeruginosa [1]": {"tested_on": "P. aeruginosa", "experiment": "Minimal inhibitory concentration (MIC), Example V", "assay_type": "cell-based", "conditions": "Pseudomonas aeruginosa", "procedure": "(§1) THE ANTIBACTERIAL SCREEN - EXAMPLE V\n(§2) THE ANTIBACTERIAL SCREEN - EXAMPLES W - Z (Autotiter IV)\n(§3) (a) Compounds. All compounds to be screened are weighed (approx. 10 mg) on the day preceding the test date. Each compound is solubilized on the day of assay in appropriate solvent and diluted automatically in the Autotiter IV with distilled water (buffer can be employed here also).\n(§4) Bacteria: Staphylococcus aureas Smith (or 209), Escherichia coli AB 1932-1, 1100/B22 and Vogel, Streptococcus pyogenes C203 Salmonella typhimurium 14028, Bacillus subtilis 6051-1, Klebsiella pneumoniae 10031, Pseudomonas aeruginosa 9027, Bordetella bronchiseptica 4617 and Staphylococcus epidermidis 12228.\n(§5) (c) Inocula. Prior to utilization in the Autotiter IV, all bacteria are cultured for 18-20 hr. (37° C) in tryptose phosphate broth (TP), except, S. pyogenes C203, which is cultured in Brain Heart Infusion broth plus 10% normal horse serum. Immediately prior to testing, each culture is adjusted to an optical density of 0.10 (650 nm), employing a Bausch & Lomb Spectronic 20, and diluted subsequently into double strength medium to approximately 2 × 10^5 viable organisms per ml.\n(§6) 1. An automated injector system dispenses 0.05 ml of diluent (sterile H2 O or buffer) to all cups of the autotiter trays from rows 2 through 7.\n(§7) 2. The loops (for sequential dilutions of the compounds are moistened by immersion into 70% ethyl alcohol. After removal of excess alcohol by blotting, the loops are moved to the first row of cups in the autotray containing 0.10 ml of the compound to be diluted and tested (usually, this initial concentration is 500 to 1000 mcg/ml, but can be varied upward or downward). The loops are lowered and sequentially transfer the diluted solutions of the compound through row 7.\n(§8) Immediately after each dilution is made, each cup is automatically inoculated with 0.05 ml of the appropriate test organism. This inoculation derives from a second injector system containing the organism in double-strength medium. The total operation consists of the automatic dilution of a single compound in each of 8 rows of the Autotiter try.\n(§9) After these operations, we reverse the tray and a second compound is diluted over the other one-half of the tray and inoculated, subsequently, with 8 organisms. Thus, for each Autotiter Tray, two compounds are screened against 8 different organisms at dilutions ranging from 1:2 to 1:128.\n(§10) (e) Incubation. The inoculated Autotiter trays are incubated at 37° C for 18 - 20 hr. At the end of this period, each tray is examined for the presence or absence of growth (turbidity). The lowest concentration of the compound inhibiting growth is recorded as the minimal inhibitory concentration (MIC)."}, "S. aureus": {"tested_on": "S. aureus", "experiment": "Minimal inhibitory concentration (MIC), Example V", "assay_type": "cell-based", "conditions": "Staphylococcus aureus", "procedure": "as §1, §2, §3, §4, §5, §6, §7, §8, §9, §10"}, "S. pyogenes": {"tested_on": "S. pyogenes", "experiment": "Minimal inhibitory concentration (MIC), Example V", "assay_type": "cell-based", "conditions": "Streptococcus pyogenes"}, "K. pneumoniae [2]": {"tested_on": "K. pneumoniae", "experiment": "Minimal inhibitory concentration (MIC), Example V", "assay_type": "cell-based", "conditions": "Klebsiella pneumoniae", "procedure": "MINIMAL INHIBITORY CONCENTRATION OF 2-AMINO-2-METHYL-1-PROPYL\n^a Minimal inhibitory concentration expressed in parts per million\nsequence inhibited the test organism at the higher concentrations.\nas §1\nKlebsiella pneumoniae ATCC# 10031\nas §2, §3, §4, §5, §6, §7, §8, §9, §10"}, "C. albicans": {"tested_on": "C. albicans", "experiment": "Minimal inhibitory concentration (MIC), Example V", "assay_type": "cell-based", "conditions": "Candida albicans", "text": "MINIMAL INHIBITORY CONCENTRATION OF 2-AMINO-2-METHYL-1-PROPYL […]\nas §1"}, "K. pneumoniae [3]": {"tested_on": "K. pneumoniae", "experiment": "Contact germicidal efficiency (sterilization time)", "assay_type": "cell-based, Klebsiella pneumoniae", "procedure": "(§11) CONTACT GERMICIDAL EFFICIENCY OF N-CHLORAMINES AS A FUNCTION\n(§12) ^a Time intervals screened 0.5, 1, 2, 3, 4 and 5 minutes.\n(§13) ^a Time intervals screened 0.5, 1, 2, 3, 4, 5, 6, 7, 8, 9 and 10\n(§14) ^a Time intervals screened 0.5, 1, 2, 3, 4, and 5 minutes.\n(§15) ^b Time intervals screened 0.5, 1, 2, 3, 4, 5, 6, 7, 8, 9 and 10\n(§16) Immediately preceding the screen, the compound is weighed and diluted with a buffer or other solvent to give the final concentration desired. The buffer or solvent chosen depends on the conditions of the screen and could be one of the following: 0.1 M NaOAc, pH 4.6; 0.1 M NaH2 PO4, pH 7.0; 0.1 M Na2 B4 O7, pH 8.8; 35% methanol in one of the aforementioned buffers; 10% Triton × 100 in buffer, etc.\n(§17) The positive chlorine concentration of the test solution is then determined iodometrically.\n(§18) Media used for the Screen are Nutrient Broth, BBL# 11479 and Nutrient Agar, BBL# 11472 prepared according to label directions. The broth is dispensed in 75 ml amounts of flasks for overnight cultures and in 5 ml amounts to culture tubes for subculturing during the Screen. Agar plates are prepared as usual.\n(§19) Overnight cultures are prepared by inoculating from stock cultures into the 75 ml flasks of nutrient broth and incubating for 15 hours at 37° C.\n(§20) The iodometrically characterized test solution is dispensed in 5 ml amounts to seven small stoppered flasks. The organisms are screened one at a time as follows:\n(§21) A 0.2 ml portion of the overnight culture is inoculated into 5 ml of 0.9% NaCl for use in controls. A 0.2 ml portion of the overnight culture is inoculated into a flask containing 5 ml of the test solution, an automatic timer is simultaneously triggered and the solution mixed. At time intervals of 30 seconds, 1, 2, 3, 4, 5, 6, 7, 8, 9, and 10 minutes a loopful of the inoculated solution is subcultured into 5 ml of sterile nutrient broth and mixed by a Vortex Genie Mixer, the high dilution serving to stop the action of the compound. At the end of the ten minute screen, the entire procedure is repeated for each of the remaining six organisms. All of the subculture tubes are incubated at 37° C and checked for signs of growth by turbidity at 24 hr., 48 hr., 3, 5, and 7 days. The earliest subculture time at which no growth is present in the subculture tube is considered the endpoint and is recorded as that time, e.g., 7 minutes.\n(§22) The test solution is prepared and characterized as above but is made up at twice the concentration desired. The solution is diluted 1:1 with Rehydrated Tissue Culture Dessicated Horse Serum, Difco #5357-72 and dispensed in a 5 ml amount to a small flask. The mixture is incubated at Room Temperature for 30 minutes to allow denaturation of the compound by the serum and then screened as above.\n(§23) The 5 ml mixture of serum and test solution are prepared in sequence to allow as close to 30 minutes as possible before the beginning of the screen of each organism.\nas §4"}, "P. aeruginosa [4]": {"tested_on": "P. aeruginosa", "experiment": "Contact germicidal efficiency (sterilization time)", "assay_type": "cell-based, Pseudomonas aeruginosa", "procedure": "as §11, §12, §13, §14, §15, §16, §17, §18, §19, §20, §21, §22, §23, §4"}, "[5]": {"conditions": "Example X, pH 4.6, no horse serum, IV c 404 ppm (69 PPMCl+), IV g 489 ppm (143 PPMCl+)"}, "[6]": {"conditions": "Example X, pH 7.0, no horse serum, IV c 1886 ppm (323 PPMCl+), IV g 409 ppm (120 PPMCl+)"}, "[7]": {"conditions": "Example X, pH 9.3, no horse serum, IV c 1704 ppm (292 PPMCl+), IV g 319 ppm (94 PPMCl+)"}, "[8]": {"conditions": "Example Y, pH 4.6, in presence of horse serum, 468 ppm (80 PPMCl+)"}}}
{"smiles": "CC(C)(COC(=O)C(C)(C)C)NCl", "note": "[IV c, 2-N-Chloroamino-2-methyl-1-propyl 2,2-dimethylproprionate]", "values": [{"measurement": "MIC", "setting": "P. aeruginosa [1]", "value": "> 250", "unit": "µg/mL"}, {"measurement": "MIC", "setting": "S. aureus", "value": "> 250", "unit": "µg/mL"}, {"measurement": "MIC", "setting": "S. pyogenes", "value": "> 125", "unit": "µg/mL"}, {"measurement": "MIC", "setting": "K. pneumoniae [2]", "value": "> 250", "unit": "µg/mL"}, {"measurement": "MIC", "setting": "C. albicans", "value": "> 250", "unit": "µg/mL"}, {"measurement": "Sterilization Time", "setting": "K. pneumoniae [3]; [5]", "value": 0.5, "unit": "min"}, {"measurement": "Sterilization Time", "setting": "K. pneumoniae [3]; [6]", "value": 2, "unit": "min"}, {"measurement": "Sterilization Time", "setting": "K. pneumoniae [3]; [7]", "value": 2, "unit": "min"}, {"measurement": "Sterilization Time", "setting": "K. pneumoniae [3]; [8]", "value": "> 10", "unit": "min"}, {"measurement": "Sterilization Time", "setting": "P. aeruginosa [4]; [5]", "value": 0.5, "unit": "min"}, {"measurement": "Sterilization Time", "setting": "P. aeruginosa [4]; [6]", "value": 1, "unit": "min"}, {"measurement": "Sterilization Time", "setting": "P. aeruginosa [4]; [7]", "value": 1, "unit": "min"}, {"measurement": "Sterilization Time", "setting": "P. aeruginosa [4]; [8]", "value": "> 10", "unit": "min"}]}
